# Columns and labels:
# [1] = tested on: Human cholangiocarcinoma cells (HuCCT1); test: In vivo study 3: HuCCT1 implant, gemcitabine or its HAP 30 mg/kg with radiotherapy; set-up: species or system Balb/c nude mice; conditions: i.p. 30 mg/kg twice/week plus 2 Gy; for tumor growth inhibitory effect: vs radiation monotherapy, FIG. 15
# Protocol: Human cholangiocarcinoma cells (HuCCT1) were subcutaneously implanted into Balb/c nude mice (5 mice per group), respectively, and gemcitabine or gemcitabine HAP was intraperitoneally administered (30 mg/kg, twice/week), respectively to examine the synergistic effect of the combination therapy with radiotherapy (2 Gy, on the day after drug administration, twice/week).
# [2] = tested on: Human cancer cells (MIA Paca-2); test: In vivo study 2 (part 2): MIA Paca-2 implant, comparison with 2-nitroimidazole, with irradiation; set-up: species or system Balb/c nude mice; conditions: i.p. 10 mg/kg twice/week plus 1 Gy; vs radiation alone, 2-nitroimidazole, and gemcitabine plus 2-nitroimidazole, FIG. 14
# Protocol: Human cancer cells (MIA Paca-2) were subcutaneously implanted into Balb/c nude mice (7 mice per group), respectively, and 2-nitroimidazole (10 mg/kg, twice/week), 2-nitroimidazole and gemcitabine (10 mg/kg respectively, twice/week), and gemcitabine HAP (10 mg/kg, twice/week) were intraperitoneally administered to examine the synergistic effect of the combination therapy with irradiation (1 Gy, on the day after drug administration, twice/week).
# [3] = tested on: Human pancreatic cancer cells (MIA Paca-2); test: In vivo study 1: MIA Paca-2 implant, gemcitabine or its HAP 120 mg/kg with radiotherapy; set-up: species or system Balb/c nude mice; conditions: i.p. 120 mg/kg twice/week plus 2 Gy; for tumor growth inhibitory effect: vs radiation monotherapy, FIG. 12
# Protocol: Human pancreatic cancer cells (MIA Paca-2) were subcutaneously implanted into Balb/c nude mice (6 or 7 mice per group), respectively, and gemcitabine or gemcitabine HAP (prepared according to the method described in Examples of JP 5676020 B2) was intraperitoneally administered (120 mg/kg, twice/week) to examine the synergistic effect of the combination therapy with radiotherapy (2 Gy, on the day after drug administration, twice/week).
# malignant tumor = test: therapy combined with radiotherapy (in vivo), summary in the disclosure; set-up: species or system experimental animals
# Text: Nevertheless, we investigated if there exists benefit or not in the therapy combined with radiotherapy using the PropHAP of gemcitabine. […] Even if the dose of the drug was increased, the effect stayed the same. […] Each PropHAP differs from gemcitabine in its chemical structure of the anticancer drug and the mechanism of action on tumors.
# [4] = tested on: Human pancreatic cancer cells (MIA Paca-2); test: In vivo study 2: MIA Paca-2 implant, gemcitabine or its HAP 10 mg/kg with radiotherapy; set-up: species or system Balb/c nude mice; conditions: i.p. 10 mg/kg twice/week plus 1 Gy, vs radiation monotherapy and gemcitabine plus radiation
# Protocol: Human pancreatic cancer cells (MIA Paca-2) were subcutaneously implanted to Balb/c nude mice (6 mice per group), and gemcitabine or gemcitabine HAP was intraperitoneally administered (10 mg/kg, twice/week) to examine the synergistic effect of the combination therapy with radiotherapy (1 Gy, on the day after drug administration, twice/week).
# PARP = test: detection of poly ADP ribosylated (PARylated) proteins by Western blotting; format: cell-based, Human; conditions: hypoxic environment, FIG. 2
# Text: To determine whether the targeted PARP activity was inhibited under a hypoxic environment, proteins were recovered from the cells and poly ADP ribosylated (PARylated) proteins were detected by Western blotting.
# [5] = tested on: Human breast cancer cells (MDA-MB-231); test: cell viability of MDA-MB-231 at normal and low oxygen concentration, 2 days; format: cell-based; conditions: MDA-MB-231, normal vs low oxygen concentration (0.2%), FIG. 1
# MDA-MB-231 cells = test: MDA-MB-231 subcutaneous implant in mice, drug combined with radiotherapy; format: in vivo, Balb/c nude mice; conditions: oral 50/100 mg/kg plus 0.5 Gy; for tumor growth inhibitory effect: compared with radiation monotherapy, FIG. 3
# Protocol: Balb/c nude mice (6 or 7 mice per group) were each subcutaneously implanted with MDA-MB-231 cells, and administered with niraparib or niraparib HAP to analyze the synergistic effect with radiotherapy.
# Irradiation: 1 hour of drug administration followed by irradiation at 0.5 Gy
# [6] = tested on: Human malignant melanoma (A375) cells; test: cell viability of A375 at normal and low oxygen concentration, 2 days; format: cell-based; conditions: A375, normal vs lower (0.2%) oxygen, FIG. 5, 6, 8
# [7] = tested on: Human breast cancer cells (MDA-MB-231); test: cell viability of MDA-MB-231 at normal and low oxygen concentration, 4 days; format: cell-based; conditions: MDA-MB-231, normal vs lower (0.2%) oxygen, FIG. 7
# [8] = tested on: Human breast cancer cells (MCF-7); test: cell viability of MCF-7 at normal and low oxygen concentration, 2 days; format: cell-based; conditions: MCF-7, normal vs lower (0.2%) oxygen, FIG. 9, 11
# Text: The results are illustrated in FIG. 11.
# [9] = tested on: Human pancreatic cancer cells (MIA Paca-2); test: MIA Paca-2 subcutaneous implant in mice, palbociclib or its HAP with radiotherapy; format: in vivo, Balb/c nude mice; conditions: oral 100 mg/kg twice/week plus 2 Gy; vs radiation alone and vs palbociclib plus radiation, FIG. 10
# Protocol: Human pancreatic cancer cells (MIA Paca-2) were subcutaneously implanted into Balb/c nude mice (6 mice per group), and palbociclib or palbociclib HAP was orally administered (100 mg/kg, twice/week) to examine the synergistic effect with radiotherapy (2 Gy on the day after drug administration, twice/week).
# [10] = tested on: human breast cancer cells (MCF7); test: MCF7 subcutaneous implant in mice, ribociclib or its HAP with radiotherapy; format: in vivo, Balb/c nude mice; conditions: oral 75 mg/kg twice/week plus 1 Gy; vs radiation alone or ribociclib plus radiation, FIG. 11
# Protocol: A 17β-estradiol sustained-release pellet (manufactured by Innovative Research of America) and human breast cancer cells (MCF7) were subcutaneously implanted to Balb/c nude mice (6 mice per group), and ribociclib or ribociclib HAP was orally administered (75 mg/kg, twice/week) to examine the synergistic effect with radiotherapy (1 Gy, on the day after drug administration, twice/week). The results are illustrated in a lower panel of FIG. 11.
# [11] = tested on: human breast cancer cells (MCF7); test: MCF7 subcutaneous implant in mice, doxorubicin or its HAP with radiotherapy; format: in vivo, Balb/c nude mice; conditions: i.p. 4 or 16 mg/kg plus 0.5 Gy
# Protocol: Balb/c nude mice (6 mice or more per group) were subcutaneously implanted with […] sustained-release pellets (produced by Innovative Research of America) and human breast cancer cells (MCF7), and intraperitoneally administered with doxorubicin (4 mg/kg. Day 0 and 2) or doxorubicin HAP 4 mg/kg, or 16 mg/kg, Day 0, 2, 7 and 9) to examine the synergistic effect with radiotherapy (0.5 Gy, Day 1, 3, 8 and 10). The results are shown in a lower panel of FIG. 16.
# hypoxic cells = conditions: compared to typical radiotherapy alone; cited from earlier work
# [12] = vs gemcitabine-administered group
# [13] = with radiotherapy, radiation dose at which the parent compound causes side effects such as weight loss
# [14] = compared with niraparib-administered group
compound,measurement,setting,value
O=C(CCn1ccnc1[N+](=O)[O-])Nc1ccn([C@@H]2O[C@H](CO)C(O)C2(F)F)c(=O)n1 (stereo in doubt) [gemcitabine HAP],body weight,[1]; [12],did not show a decrease in body weight
same,tumor growth inhibitory effect,[1],tumor growth inhibitory effect was enhanced
same,tumor growth inhibitory effect,[2],tumor growth inhibitory effect was enhanced
same,body weight,[3]; [12],no decrease in body weight
same,survival rate,[3]; [12],improved survival rate
same,tumor growth inhibitory effect,[3],tumor growth inhibitory effect was enhanced
same,anticancer effects,"malignant tumor; radiation and drug dose at which the parent shows no side effect, vs radiation alone, parent alone, parent plus radiotherapy",significantly superior anticancer effects
same,therapeutic effect,malignant tumor; [13],almost equivalent to that of the parent compound
same,weight loss,malignant tumor; [13],not resulting in a significant weight loss
same,tumor growth inhibitory effect,[4]; FIG. 13,effect was higher than that of gemcitabine
same,tumor growth inhibitory effect,"[4]; FIG. 13, listed as gemcitabine-HAP",tumor growth inhibitory effect was enhanced
NC(=O)c1cccc2cn(-c3ccc(C4CCCN(C(=O)CCn5ccnc5[N+](=O)[O-])C4)cc3)nc12 (centres unmarked) [Compound 3],PARP activity (PARylated proteins),PARP,PARP activity is specifically inhibited under the low oxygen environment
same,cytotoxicity (cell viability),[5],cytotoxicity is recovered at the low oxygen concentration
same,body weight,MDA-MB-231 cells; [14],no decrease in body weight
same,survival rate,MDA-MB-231 cells; [14],improved survival rate
same,tumor growth inhibitory effect,MDA-MB-231 cells,tumor growth inhibitory effect is enhanced
CC(C)(C)c1nc(-c2cccc(NS(=O)(=O)c3c(F)cccc3F)c2F)c(-c2ccnc(NC(=O)CCn3ccnc3[N+](=O)[O-])n2)s1 [Compound 9],cytotoxicity (cell viability),[6],cytotoxicity is recovered at the low oxygen concentration
CCCS(=O)(=O)Nc1ccc(F)c(C(=O)c2cn(C(=O)CCn3ccnc3[N+](=O)[O-])c3ncc(-c4ccc(Cl)cc4)cc23)c1F [Compound 11],cytotoxicity (cell viability),[6],cytotoxicity is recovered at the low oxygen concentration
O=C(CCn1ccnc1[N+](=O)[O-])Nc1ccccc1NC(=O)c1ccc(CNC(=O)OCc2cccnc2)cc1 [Compound 13],cytotoxicity (cell viability),[7],cytotoxicity is recovered at the low oxygen concentration
O=C(c1ccc(F)c(F)c1Nc1ccc(I)cc1F)N1CC(O)([C@@H]2CCCCN2C(=O)CCn2ccnc2[N+](=O)[O-])C1 [Compound 15],cytotoxicity (cell viability),[6],cytotoxicity is recovered at the low oxygen concentration
CC(=O)c1c(C)c2cnc(Nc3ccc(N4CCN(C(=O)CCn5ccnc5[N+](=O)[O-])CC4)cn3)nc2n(C2CCCC2)c1=O [Compound 17],cytotoxicity (cell viability),[8],cytotoxicity is recovered at the low oxygen concentration
same,tumor growth inhibitory effect,[9],tumor growth inhibitory effect was enhanced when radiation was used in combination
CN(C)C(=O)c1cc2cnc(Nc3ccc(N4CCN(C(=O)CCn5ccnc5[N+](=O)[O-])CC4)cn3)nc2n1C1CCCC1 [Compound 19],tumor growth inhibitory effect,[10],tumor growth inhibitory effect was enhanced when radiation was used in combination
same,cytotoxicity (cell viability),[8],cytotoxicity is recovered at the low oxygen concentration
COc1cccc2c1C(=O)c1c(O)c3c(c(O)c1C2=O)CC(O)(C(=O)CO)CC3OC1CC(NC(=O)CCn2ccnc2[N+](=O)[O-])C(O)C(C)O1 (centres unmarked) [doxorubicin HAP],weight loss,[11]; vs doxorubicin-administered group,did not show the weight loss
same,tumor growth inhibitory effect,"[11]; vs radiotherapy alone and doxorubicin plus radiation, FIG. 16",tumor growth inhibitory effect was enhanced when radiation was used in combination
O=C(Cn1ccnc1[N+](=O)[O-])NCCO [etanidazole],survival rate,hypoxic cells,no significant improvement statistically in survival rate
"Nc1ccn([C@@H]2O[C@H](CO)[C@@H](O)C2(F)F)c(=O)n1 [gemcitabine, reference compound]",tumor growth inhibitory effect,[1],tumor growth inhibitory effect was enhanced
same,tumor growth inhibitory effect,[3],tumor growth inhibitory effect was enhanced
O=[N+]([O-])c1cncn1CCN1CCOCC1 [nimorazole],survival rate,hypoxic cells,no significant improvement statistically in survival rate
"NC(=O)c1cccc2cn(-c3ccc([C@@H]4CCCNC4)cc3)nc12 [niraparib, reference compound]",tumor growth inhibitory effect,MDA-MB-231 cells,tumor growth inhibitory effect is enhanced
O=[N+]([O-])c1nccn1CC(O)CN1CCCCC1 (centres unmarked) [pimonidazole],survival rate,hypoxic cells,no significant improvement statistically in survival rate

# Reference: US20240424011A1, “COMBINATION THERAPY OF HYPOXIA-RESPONSIVE PRODRUG OF AN ANTICANCER DRUG AND RADIOTHERAPY, AND NOVEL HYPOXIA-RESPONSIVE PRODRUG” (UNIVERSITY OF TSUKUBA, priority 2021, published 2024)
